Laboratory results reported in US9216983B2, “Dihydroorotate dehydrogenase inhibitors with selective anti-malarial activity” (BOARD OF REGENTS, UNIVERSITY OF TEXAS SYSTEM, priority 2007, dated 2015).
Read-outs that look alike come from different tables or passages of the source.

Experiments:
[1] = biological target: T1, PfDHODH (Plasmodium falciparum, UniProt Q08210); assay: biochemical
T1 sequence (Q08210 24-569): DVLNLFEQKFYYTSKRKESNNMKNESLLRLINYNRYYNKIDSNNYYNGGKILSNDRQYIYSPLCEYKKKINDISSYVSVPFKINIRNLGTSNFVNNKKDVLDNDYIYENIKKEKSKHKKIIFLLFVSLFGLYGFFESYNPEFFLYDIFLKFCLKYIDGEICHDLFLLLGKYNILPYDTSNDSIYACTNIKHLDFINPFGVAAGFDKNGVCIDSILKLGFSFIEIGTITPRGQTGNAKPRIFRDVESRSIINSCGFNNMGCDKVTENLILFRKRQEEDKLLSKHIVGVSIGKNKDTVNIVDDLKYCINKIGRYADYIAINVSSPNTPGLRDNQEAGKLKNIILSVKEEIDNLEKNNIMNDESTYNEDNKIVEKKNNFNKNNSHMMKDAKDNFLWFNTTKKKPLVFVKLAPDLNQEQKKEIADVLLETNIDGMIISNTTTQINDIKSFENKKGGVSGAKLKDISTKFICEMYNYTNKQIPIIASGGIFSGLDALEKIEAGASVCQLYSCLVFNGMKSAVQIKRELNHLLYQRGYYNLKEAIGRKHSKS
Procedure: (§1) Briefly, the assay solution contained 100 mM HEPES, pH 8.0, 150 mM NaCl, 10% glycerol, 0.1% Triton X-100, 20 micro molar COQD (coenzyme QD), 200 micro molar L-dihydroorotate, and 120 micro molar DCIP. Reactions are initiated by addition of enzyme to a final concentration in the range of about […] to about 50 nM while maintaining the temperature of a circulating water bath at 25° C.
(§2) Assay solutions were prepared as discussed above, except that DCIP is not present and the solution is depleted of oxygen by the inclusion of an oxidase/reductase system, such as, 0.1 mg/ml of glucose oxidase, 0.02 mg/ml catalase and 50 mM glucose. The data obtained is fitted to equation 1, to determine the IC50 values of the representative compounds.

[2] = biological target: PbDHODH (Plasmodium berghei, UniProt A0A509AEH5); assay: DHODH enzyme inhibition assay, PbDHODH; type: biochemical, P. berghei; conditions: Table 4, IC50 class
Sequence of PbDHODH (A0A509AEH5 entry or part of it): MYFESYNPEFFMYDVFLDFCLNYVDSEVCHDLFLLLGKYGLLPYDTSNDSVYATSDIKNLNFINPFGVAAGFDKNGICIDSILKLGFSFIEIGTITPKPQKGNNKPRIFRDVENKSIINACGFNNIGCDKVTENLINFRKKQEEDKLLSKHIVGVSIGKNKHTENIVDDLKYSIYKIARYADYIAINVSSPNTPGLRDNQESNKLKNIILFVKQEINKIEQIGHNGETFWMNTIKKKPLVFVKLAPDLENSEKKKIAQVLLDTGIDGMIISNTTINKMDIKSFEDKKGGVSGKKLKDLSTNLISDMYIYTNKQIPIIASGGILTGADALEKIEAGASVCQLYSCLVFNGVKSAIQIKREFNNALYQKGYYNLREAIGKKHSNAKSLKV
Procedure: as §1, §2

[3] = Table 4, IC50 class, read-out: PfDHODH
[4] = Table 5, read-out: PfDHODH IC50

| Compound | IC50 [1, 4] [nM] | IC50 [1, 3] [nM] | IC50 ([2]; PbDHODH) [nM] | also measured |
| --- | --- | --- | --- | --- |
| Cc1cc(Nc2ccc(-c3ccccc3)cc2)n2ncnc2n1 | – | 2000 to 10000 | – | – |
| Cc1cc(Nc2ccc(F)cc2)n2ncnc2n1 | – | > 10000 | > 10000 | – |
| Cc1cc(Nc2ccccc2F)n2ncnc2n1 | – | > 10000 | > 10000 | – |
| Cc1cc(Nc2ccc(C#N)cc2)n2ncnc2n1 | – | 2000 to 10000 | – | – |
| Cc1cc(Nc2ccccc2C(F)(F)F)n2ncnc2n1 | – | > 10000 | > 10000 | – |
| Cc1cc(Nc2ccccc2C#N)n2ncnc2n1 | – | > 10000 | > 10000 | – |
| Cc1cc(Nc2ccccc2C)n2ncnc2n1 | – | > 10000 | > 10000 | – |
| Cc1cccc(Nc2cc(C)nc3ncnn23)c1 | – | 2000 to 10000 | > 10000 | – |
| Cc1cc(Nc2ccccc2Cl)n2ncnc2n1 | – | > 10000 | > 10000 | – |
| Cc1ccc(Nc2cc(C)nc3ncnn23)cc1 | – | 2000 to 10000 | > 10000 | – |
| Cc1cc(Nc2ccc([N+](=O)[O-])cc2)n2ncnc2n1 | – | 2000 to 10000 | 2000 to 10000 | – |
| Cc1cc(Nc2ccc(Br)cc2)n2ncnc2n1 | – | 2000 to 10000 | > 10000 | – |
| Cc1cc(Nc2cc(F)ccc2F)n2ncnc2n1 | – | > 10000 | > 10000 | – |
| Cc1cc(Nc2c(F)cccc2F)n2ncnc2n1 | – | > 10000 | > 10000 | – |
| C=Cc1ccc(Nc2cc(C)nc3ncnn23)cc1 | – | – | 2000 to 10000 | – |
| Cc1cc(Nc2ccc(Cl)c(C(F)(F)F)c2)n2ncnc2n1 | – | < 2000 | – | IC50 ([2]; read-out: PbDHODH): < 2000 nM |
| Cc1cc(Nc2ccc(C(C)(C)C)cc2)n2ncnc2n1 | – | < 2000 | < 2000 | – |
| Cc1cc(Nc2ccc(N(C)C)cc2)n2ncnc2n1 | – | < 2000 | > 10000 | – |
| Cc1cc(Nc2c(F)c(F)cc(F)c2F)n2ncnc2n1 | – | > 10000 | > 10000 | – |
| Cc1cc(Nc2c(F)c(F)c(F)c(F)c2F)n2ncnc2n1 | – | > 10000 | > 10000 | – |
| Cc1cc(Nc2cccc(Cl)c2)n2ncnc2n1 [drawing 35] | – | – | – | IC50 ([1]; PfDHODH, Table 4, IC50 class): < 2000 nM |
| Cc1cc(Nc2cccc(Cl)c2)n2ncnc2n1 [drawing 116] | – | – | – | IC50 ([1]; PfDHODH IC50, Table 5): 566 nM |

The next lines start with results.

| IC50 [1, 4] [nM] | Compound | IC50 [1, 3] [nM] | IC50 ([2]; PbDHODH) [nM] | also measured |
| --- | --- | --- | --- | --- |
| 1170 | CCc1nc2nc(C)cc(Nc3cccc(C(F)(F)F)c3)n2n1 | – | – | – |
| 247 | CCCc1nc2nc(C)cc(Nc3cccc(Cl)c3)n2n1 | – | – | – |
| 81.4 | Cc1cc(Nc2ccc(C)c(C)c2)n2nc(C)nc2n1 | – | – | – |
| 75.2 | Cc1cc(Nc2ccc(Cl)c(Cl)c2)n2nc(C)nc2n1 | – | – | – |
| 2250 | CCc1nc2nc(C)cc(Nc3ccc(OC)cc3)n2n1 | – | – | – |
| 37.9 | CCc1nc2nc(C)cc(Nc3ccc(I)cc3)n2n1 | – | – | – |
| 285 | Cc1cc(Nc2cccc(C(F)(F)F)c2)n2nc(C)nc2n1 | – | – | – |
| 1390 | Cc1cc(Nc2ccc(Cl)c(C)c2)n2nc(C)nc2n1 | – | – | – |
| 132 | CCCc1nc2nc(C)cc(Nc3ccc(C)c(Cl)c3)n2n1 | – | – | – |
| 641 | CCc1cccc(Nc2cc(C)nc3ncnn23)c1 | – | – | – |
| 240 | Cc1cc(Nc2ccc(C)c(Cl)c2)n2ncnc2n1 | – | – | – |
| 362 | COc1ccc(Nc2cc(C)nc3ncnn23)cc1Cl | – | – | – |
| 66.3 | CCc1nc2nc(C)cc(Nc3ccc(C)c(F)c3)n2n1 | – | – | – |
| 277 | CCCc1nc2nc(C)cc(Nc3ccc(C)c(F)c3)n2n1 | – | – | – |
| 395 | CCc1nc2nc(C)cc(Nc3ccc(Br)cc3F)n2n1 | – | – | – |
| 145 | CCc1nc2nc(C)cc(Nc3ccc(F)c(Cl)c3)n2n1 | – | – | – |
| 629 | Cc1cc(Nc2ccc(C)c(F)c2)n2nc(C)nc2n1 | – | – | – |
| 151 | Cc1cc(Nc2ccc(I)cc2)n2ncnc2n1 | – | – | – |
| 6300 ± 950 | Cc1cc(Nc2ccc(OCc3ccccc3)cc2)n2ncnc2n1 | – | – | – |
| 990 ± 180 | C#Cc1ccc(Nc2cc(C)nc3ncnn23)cc1 | – | – | – |
| > 100000 | Cc1cc(Nc2ccc(N3CCOCC3)cc2)n2ncnc2n1 | – | – | – |
| 50 ± 8 | Cc1cc(Nc2ccc3c(c2)CCCC3)n2ncnc2n1 | – | – | – |
| 116 ± 30 | Cc1cc(Nc2ccc3c(c2)CCC3)n2ncnc2n1 | – | – | – |
| 117 ± 10 | Cc1cc(Nc2ccc(S(F)(F)(F)(F)F)cc2)n2ncnc2n1 | – | – | – |
| 375 | COc1ccc(Nc2cc(C)nc3nc(C)nn23)cc1Cl [drawing 98] | – | – | – |
| 326 | COc1ccc(Nc2cc(C)nc3nc(C)nn23)cc1Cl [drawing 99] | – | – | – |
